Experimental data from patent US12251373B2, “Compounds and methods of treating retinal degeneration” (CASE WESTERN RESERVE UNIVERSITY, priority 2017, dated 2025).

Assays:
[1] = tested on: C57BL/6 mice; assay: Retinoid cycle analyses (11-cis-retinyl oxime after bleaching); format: in vivo, mouse; details: 200 mg kg−1 bw i.p., compared to DMSO
Experimental: To test if treatment with YC-001 affects visual pigment regeneration, we quantified the 11-cis-retinyl oxime extracted from retinas of C57BL/6 mice after different periods of dark adaptation following exposure to bright light. Mice at 6 weeks of age were administered YC-001 at 200 mg kg^−1 bw via i.p. injection. At 30 min following YC-001 administration, eyes were dilated with 1% tropicamide. Mice then were anesthetized with a cocktail containing 20 mg mL^−1 of ketamine and 1.75 mg mL^−1 of xylazine at a dose of 4 μL g^−1 bw. Anesthetized mice were exposed to bright light with an intensity of 10,000 lux for 10 min to bleach about 90% of the rhodopsin pigment. Mice then were returned to the dark for recovery. Animals then were euthanized at 0, 2, 4, 6 or 24 h after bleaching and recovery in the dark, and their eyes were removed and homogenized in 1 mL of 1:1 PBS:ethanol mixture (v/v) containing 40 mM hydroxylamine. […] 11-cis-Retinyl oxime released from the regenerated rhodopsin pigments were separated on an Agilent Sil column (5 μm, 4.6×250 mm) with an isocratic flow of 10% ethyl acetate in hexanes (1.5 mL min^−1) and detected at 325 nm. Amounts of 11-cis-retinyl oximes per eye were quantified by normalizing the peak area to an 11-cis-retinyl oxime standard. 11-cis-Retinyl oximes were quantified in three eye samples per condition, and the means and s.d.s were calculated.

[2] = Pharmacokinetics of YC-001 in mouse plasma; format: in vivo
Experimental: C57BL/6J mice ranging from 8 to 12 weeks of age were purchased from Jackson Labs. For administration, YC-001 was dissolved in DMSO at 160 mg mL^−1. To obtain the blood clearance curve for YC-001, each animal was treated by intraperitoneal injection of YC-001 at 200 mg kg^−1 bw. After administration, blood was collected at 5, 10, 15, 20, 30, 45, 60 and 90 min from the orbital sinus and dropped into K2EDTA blood collection tubes (FisherScientific). Mice were anesthetized with a ketamine/xylazine cocktail two min before blood collection. The blood samples were then incubated at 4° C. for 2 h before centrifugation at 1,800×g for 20 min to collect the supernatant that was the plasma. Plasma was mixed with twice the volume of methanol and then stored at −80° C. YC-001 was extracted from the samples (300 to 600 μL) with 0.6 mL chloroform. The chloroform fraction was collected, dried, and the extracted organic compounds were dissolved in 0.25 mL of methanol. One hundred-μL of each sample was injected onto an Eclipse XDB-C18 column (4.6×150 mm, 5 μm) and YC-001 was detected and quantified as described in the section Metabolic stability of YC-001.

[3] = molecular target: T1, rod opsin (Bos taurus, UniProt P02699); assay: Raman spectroscopy of rod opsin crystal soaked with compound; format: binding, bovine; details: Raman difference spectrum, FIG. 4f
T1 construct: ROS membranes were isolated from bovine retinas under dim red light; from tissue; host or cells: bovine retina rod outer segment (ROS) membranes, bleached with hydroxylamine
T1 sequence (P02699 whole entry): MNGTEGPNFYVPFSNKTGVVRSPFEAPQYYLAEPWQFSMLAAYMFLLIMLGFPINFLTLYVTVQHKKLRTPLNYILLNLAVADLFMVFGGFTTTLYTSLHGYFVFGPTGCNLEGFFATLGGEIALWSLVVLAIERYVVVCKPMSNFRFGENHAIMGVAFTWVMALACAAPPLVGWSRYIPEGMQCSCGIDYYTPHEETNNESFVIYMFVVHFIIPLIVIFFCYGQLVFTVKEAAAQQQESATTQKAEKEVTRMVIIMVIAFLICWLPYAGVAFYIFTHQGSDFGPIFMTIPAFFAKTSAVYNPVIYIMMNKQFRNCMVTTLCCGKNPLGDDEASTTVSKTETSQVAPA
Experimental: Bleached ROS membranes bearing opsin were solubilized with either 20 mM BTP, pH 7.5, or 50 mM MES, pH 6.4, together with 130 mM NaCl, 1 mM MgCl2, 10% sucrose, and 1% n-octyl-β-D-glucopyranoside (OG) for 1 h at 4° C. Insoluble debris was removed by centrifugation at 16,000 g for 5 min at 4° C. Crystallization screens were performed by the sparse matrix crystallization method based upon previously published crystallization conditions for rhodopsin and opsin. Each hanging drop was prepared by mixing equal volumes of solubilized opsin and a reservoir solution containing 3.0-3.6 M ammonium sulfate in 0.05-0.1 M sodium acetate buffer, pH 5.2-5.6. Crystals appeared within 2-5 days at 4° C. and were analyzed directly by Raman spectroscopy.
Here, we used Raman microscopy to test if YC-001 binds rod opsin in a single crystal. A rod opsin crystal was transferred into 4.5 μL of fresh reservoir solution on a siliconized glass coverslip and transferred into a hanging drop crystallization tray where the well contained 1 mL of the same solution. An 80 mW, 647.1 nm Kr^+ laser beam (Innova 70 C, Coherent, Palo Alto, CA, USA) was focused on the rod opsin crystal with a 20× objective. The Raman spectrum of the rod opsin crystal was accumulated over 100×1 s. […]

## O=C1OCC(c2ccc(Cl)s2)=C1c1cccs1 [YC-001]
[1]
  recovery of 11-cis-retinyl oxime after photobleaching: little difference
[2]; 0.693/T1/2
  elimination rate constant (Ke): 0.0201 min⁻¹
[2]; Dose/C0
  volume of distribution (Vd): 27.5 L kg−1 bw
[2]; Ke×Vd
  Clearance: 0.552 L min−1 kg−1 bw
[3]
  mode of binding to rod opsin: non-covalent binding
